Values quoted from earlier work as cited in patent US20150073057A1, “COMPOSITION AND METHOD FOR TREATMENT OF DIABETES” (BioKier, Inc., priority 2013, published 2015).

Test system: overweight and obese human subjects

Oxyntomodulin: a gut hormone, 37 amino acid peptide co-secreted along with GLP-1 from L-cells
reduction of energy intake: ~17%
